Experiments:
[1] = tested on: SAGPY (Arrowhead (Pygmaea)); experiment: Preemergence weed control under flooded paddy conditions; format: in vivo, Sagittaria pygmaea; settings: rated 3-4 weeks after treatment
Outline: (§1)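 Visual injury scored 0-9 against control three to four weeks post-treatment, greenhouse-grown. Application: acetone/water (50/50) solutions dosed directly into flood water (1.5-3 cm over silt loam, planted top 0.5 cm), roughly 0.0313 to 0.500 kg/ha active ingredient.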

CASOB (Sicklepod) [2] = experiment: Postemergence herbicidal evaluation; format: in vivo, Cassia obtusifolia; settings: postemergence
Outline: (§2)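 Two-week-old seedlings sprayed with compound in 50/50 acetone/water plus 0.5% TWEEN 20, at about 0.0156 to 0.500 kg/ha, nozzle at 40 psi. Kept in greenhouse; rated visually 4-5 weeks after treatment on a 0-9 scale versus control, repeat tests averaged.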

[3] = tested on: GLXMAW (Soybean, Williams); experiment: Postemergence herbicidal evaluation; format: in vivo, Glycine max, (L.) Merr. cv Williams; settings: postemergence
Outline: as §2

AMBEL (Ragweed, Common) = experiment: Postemergence herbicidal evaluation; format: in vivo, Ambrosia artemisifolia; settings: postemergence
Outline: as §2

GALAP (Galium) [4] = experiment: Preemergence herbicidal evaluation; format: in vivo, Galium aparine; settings: rated 4-5 weeks after treatment
Outline: (§3)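 Test compound, dissolved in aqueous acetone, was sprayed over planted soil cups at an equivalent of about 0.0156 to 0.500 kg/ha; seeds had been mixed with potting soil. Greenhouse growth followed, with visual 0-9 scoring of injury at four to five weeks.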

ECHCG (Barnyardgrass) = experiment: Postemergence herbicidal evaluation; format: in vivo, Echinochloa crus-galli; settings: postemergence
Outline: as §2

CASOB (Sicklepod) [5] = experiment: Preemergence herbicidal evaluation; format: in vivo, Cassia obtusifolia; settings: rated 4-5 weeks after treatment
Outline: as §3

CYPSE (Flatsedge) [6] = experiment: Preemergence weed control under flooded paddy conditions; format: in vivo, Cyperus serotinus; settings: rated 3-4 weeks after treatment
Outline: as §1

SETVI (Foxtail, Green) = experiment: Postemergence herbicidal evaluation; format: in vivo, Setaria viridis; settings: postemergence
Outline: as §2

GALAP (Galium) [7] = experiment: Postemergence herbicidal evaluation; format: in vivo, Galium aparine; settings: postemergence
Outline: as §2

CYPIR (Rice Flatsedge) = experiment: Preemergence weed control under flooded paddy conditions; format: in vivo, Cyperus iria; settings: rated 3-4 weeks after treatment
Outline: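 Herbicidal effect is scored visually on a 0-9 scale against an untreated control, three to four weeks after compounds are pipetted into the flood water (1.5 to 3 cm deep) over seeds planted in silt loam at 0.5 cm depth. Rates: about 0.0313 to 0.500 kg/ha.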

[8] = tested on: CHEAL (Lambsquarters, Common); experiment: Postemergence herbicidal evaluation; format: in vivo, Chenopodium album; settings: postemergence
Outline: as §2

CYPSE (Flatsedge) [9] = experiment: Postemergence weed control under flooded paddy conditions; format: in vivo, Cyperus serotinus; settings: postemergence weeds, 3-4 weeks after treatment
Outline: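 Injury ratings (0–9 scale covering stand, vigor, malformation, size, chlorosis and overall appearance versus control) were made three to four weeks after treatment. Test material, about 0.0313 to 0.500 kg/ha a.i. in 50/50 v/v aqueous/acetone, was added to flood water 1.5 to 3 cm deep over 3 to 5 cm weeds and 1.5 to 2.5 leaf rice.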

ZEAMX (Corn, Field) = experiment: Preemergence herbicidal evaluation; format: in vivo, Zea mays; settings: rated 4-5 weeks after treatment
Outline: as §3

ORYSAT (Rice, Tebonnet) = experiment: Postemergence herbicidal evaluation; format: in vivo, Oryza sativa, (L.) Tebonnet; settings: postemergence
Outline: as §2

With `CN1C(=O)CS/C1=N/c1cc(-n2c(=O)cc(C(F)(F)F)n(C)c2=O)c(F)cc1Cl` [Compound 7] the “Herbicidal rating SAGPY” value ([1]; 0.0313 kg/ha) was 2.0, the “Herbicidal rating SAGPY” value ([1]; 0.0625 kg/ha) was 4.0 and the “Herbicidal rating SAGPY” value ([1]; 0.1250 kg/ha) was 8.0. For the same compound, the “Herbicidal rating SAGPY” value ([1]; 0.2500 kg/ha) was 9.0, the CASOB herbicidal rating (CASOB (Sicklepod) [2]; rate 0.0157 kg/ha) was 4.0 and the CASOB herbicidal rating (CASOB (Sicklepod) [2]; rate 0.0313 kg/ha) was 5.0. For the same compound, the CASOB herbicidal rating (CASOB (Sicklepod) [2]; rate 0.0625 kg/ha) was 5.0, the CASOB herbicidal rating (CASOB (Sicklepod) [2]; rate 0.1250 kg/ha) was 7.0 and the GLXMAW herbicidal rating ([3]; rate 0.0157 kg/ha) was 5.0. For the same compound, the GLXMAW herbicidal rating ([3]; rate 0.0313 kg/ha) was 6.5, the GLXMAW herbicidal rating ([3]; rate 0.0625 kg/ha) was 7.5 and the GLXMAW herbicidal rating ([3]; rate 0.1250 kg/ha) was 7.5. For the same compound, the AMBEL herbicidal rating (AMBEL (Ragweed, Common); rate 0.0157 kg/ha) was 5.0, the AMBEL herbicidal rating (AMBEL (Ragweed, Common); rate 0.0313 kg/ha) was 5.0 and the AMBEL herbicidal rating (AMBEL (Ragweed, Common); rate 0.0625 kg/ha) was 7.0. The AMBEL herbicidal rating (AMBEL (Ragweed, Common); rate 0.1250 kg/ha) was 9.0, the “GALAP preemergence herbicidal rating” value (GALAP (Galium) [4]; rate 0.0157 kg/ha) was 4.0 and the “GALAP preemergence herbicidal rating” value (GALAP (Galium) [4]; rate 0.0313 kg/ha) was 7.5. For the same compound, the “GALAP preemergence herbicidal rating” value (GALAP (Galium) [4]; rate 0.0625 kg/ha) was 9.0, the “GALAP preemergence herbicidal rating” value (GALAP (Galium) [4]; rate 0.1250 kg/ha) was 9.0 and the “GALAP preemergence herbicidal rating” value (GALAP (Galium) [4]; rate 0.2500 kg/ha) was 9.0. For the same compound, the ECHCG herbicidal rating (ECHCG (Barnyardgrass); rate 0.0157 kg/ha) was 2.0, the ECHCG herbicidal rating (ECHCG (Barnyardgrass); rate 0.0313 kg/ha) was 0.0 and the ECHCG herbicidal rating (ECHCG (Barnyardgrass); rate 0.0625 kg/ha) was 3.0. For the same compound, the ECHCG herbicidal rating (ECHCG (Barnyardgrass); rate 0.1250 kg/ha) was 4.0, the “CASOB preemergence herbicidal rating” value (CASOB (Sicklepod) [5]; rate 0.0157 kg/ha) was 9.0 and the “CASOB preemergence herbicidal rating” value (CASOB (Sicklepod) [5]; rate 0.0313 kg/ha) was 9.0. For the same compound, the “CASOB preemergence herbicidal rating” value (CASOB (Sicklepod) [5]; rate 0.0625 kg/ha) was 9.0, the “CASOB preemergence herbicidal rating” value (CASOB (Sicklepod) [5]; rate 0.1250 kg/ha) was 8.0 and the “CASOB preemergence herbicidal rating” value (CASOB (Sicklepod) [5]; rate 0.2500 kg/ha) was 9.0. For the same compound, the “Herbicidal rating CYPSE” value (CYPSE (Flatsedge) [6]; 0.0313 kg/ha) was 4.0, the “Herbicidal rating CYPSE” value (CYPSE (Flatsedge) [6]; 0.0625 kg/ha) was 7.0 and the “Herbicidal rating CYPSE” value (CYPSE (Flatsedge) [6]; 0.1250 kg/ha) was 7.0. For the same compound, the “Herbicidal rating CYPSE” value (CYPSE (Flatsedge) [6]; 0.2500 kg/ha) was 9.0, the SETVI herbicidal rating (SETVI (Foxtail, Green); rate 0.0157 kg/ha) was 5.0 and the SETVI herbicidal rating (SETVI (Foxtail, Green); rate 0.0313 kg/ha) was 4.0. For the same compound, the SETVI herbicidal rating (SETVI (Foxtail, Green); rate 0.0625 kg/ha) was 9.0, the SETVI herbicidal rating (SETVI (Foxtail, Green); rate 0.1250 kg/ha) was 9.0 and the GALAP herbicidal rating (GALAP (Galium) [7]; rate 0.0157 kg/ha) was 3.0. It also gave a GALAP herbicidal rating (GALAP (Galium) [7]; rate 0.0313 kg/ha) of 4.0, a GALAP herbicidal rating (GALAP (Galium) [7]; rate 0.0625 kg/ha) of 5.0 and a GALAP herbicidal rating (GALAP (Galium) [7]; rate 0.1250 kg/ha) of 9.0. For the same compound, the “Herbicidal rating CYPIR” value (CYPIR (Rice Flatsedge); 0.0313 kg/ha) was 8.0, the “Herbicidal rating CYPIR” value (CYPIR (Rice Flatsedge); 0.0625 kg/ha) was 9.0 and the “Herbicidal rating CYPIR” value (CYPIR (Rice Flatsedge); 0.1250 kg/ha) was 9.0. The “Herbicidal rating CYPIR” value (CYPIR (Rice Flatsedge); 0.2500 kg/ha) was 9.0, the CHEAL herbicidal rating ([8]; rate 0.0157 kg/ha) was 0.0 and the CHEAL herbicidal rating ([8]; rate 0.0313 kg/ha) was 5.0. The CHEAL herbicidal rating ([8]; rate 0.0625 kg/ha) was 6.0, the CHEAL herbicidal rating ([8]; rate 0.1250 kg/ha) was 9.0 and the “Herbicidal rating CYPSE” value (CYPSE (Flatsedge) [9]; rate 0.0313 kg/ha) was 3.0. The “Herbicidal rating CYPSE” value (CYPSE (Flatsedge) [9]; rate 0.0625 kg/ha) was 7.0, the “Herbicidal rating CYPSE” value (CYPSE (Flatsedge) [9]; rate 0.1250 kg/ha) was 7.5 and the “Herbicidal rating CYPSE” value (CYPSE (Flatsedge) [9]; rate 0.2500 kg/ha) was 8.0. For the same compound, the “ZEAMX preemergence herbicidal rating” value (ZEAMX (Corn, Field); rate 0.0157 kg/ha) was 7.0, the “ZEAMX preemergence herbicidal rating” value (ZEAMX (Corn, Field); rate 0.0313 kg/ha) was 8.0 and the “ZEAMX preemergence herbicidal rating” value (ZEAMX (Corn, Field); rate 0.0625 kg/ha) was 8.5. The “ZEAMX preemergence herbicidal rating” value (ZEAMX (Corn, Field); rate 0.1250 kg/ha) was 8.5, the “ZEAMX preemergence herbicidal rating” value (ZEAMX (Corn, Field); rate 0.2500 kg/ha) was 9.0 and the ORYSAT herbicidal rating (ORYSAT (Rice, Tebonnet); rate 0.0157 kg/ha) was 4.5. The ORYSAT herbicidal rating (ORYSAT (Rice, Tebonnet); rate 0.0313 kg/ha) was 4.0, the ORYSAT herbicidal rating (ORYSAT (Rice, Tebonnet); rate 0.0625 kg/ha) was 4.5 and the ORYSAT herbicidal rating (ORYSAT (Rice, Tebonnet); rate 0.1250 kg/ha) was 6.5.

From patent publication US20020137929A1, “1 - (3-heterocyclylphenyl) isothiourea, -isourea, -guanidine and -amidine herbicidal agents” (Intellectual Property Department, BASF Aktiengesellschaft, priority 1998, published 2002)
